Assay results reported in the NIST ThermoML archive (doi:10.1021/je2004462).
± gives the expanded uncertainty stated by the source.

Key:
[1] = refractive index (Na D-line) (dimensionless); settings: 101.33 kPa, Liquid, Standard Abbe refractometry
[2] = for mass density / viscosity: 101.33 kPa, Liquid; for surface tension liquid-gas: Pendant drop shape

Row | SMILES | refractive index ([1]; 293.15 K) | refractive index ([1]; 303.15 K) | refractive index ([1]; 313.15 K) | refractive index ([1]; 323.15 K) | refractive index ([1]; 333.15 K) | refractive index ([1]; 343.15 K) | refractive index ([1]; 353.15 K) | mass density ([2]; 293.15 K) [kg/m3] | viscosity ([2]; 293.15 K) [mPa·s] | surface tension liquid-gas ([2]; 303.15 K) [mN/m] | mass density ([2]; 303.15 K) [kg/m3] | viscosity ([2]; 303.15 K) [mPa·s] | surface tension liquid-gas ([2]; 313.15 K) [mN/m] | mass density ([2]; 313.15 K) [kg/m3] | viscosity ([2]; 313.15 K) [mPa·s] | surface tension liquid-gas ([2]; 323.15 K) [mN/m] | mass density ([2]; 323.15 K) [kg/m3] | viscosity ([2]; 323.15 K) [mPa·s] | surface tension liquid-gas ([2]; 333.15 K) [mN/m] | mass density ([2]; 333.15 K) [kg/m3] | further results
1 | CCn1cc[n+](C)c1.O=S(=O)([O-])C(F)(F)C(F)F | 1.441 ± 0.00047 | 1.43833 ± 0.00047 | 1.4357 ± 0.00047 | 1.43304 ± 0.00047 | 1.43041 ± 0.00047 | 1.42777 ± 0.00047 | 1.42514 ± 0.00047 | 1435.84 ± 2 | 117.43 ± 5.6 | 43.29 ± 0.47 | 1427.44 ± 2 | 72.64 ± 1.7 | 42.45 ± 0.46 | 1419.04 ± 2 | 48.32 ± 0.87 | 42.03 ± 0.45 | 1410.67 ± 2 | 33.94 ± 0.6 | 41.43 ± 0.45 | 1402.33 ± 1.9 | viscosity ([2]; 333.15 K): 25.05 ± 0.44 mPa·s; mass density ([2]; 343.15 K): 1394.02 ± 1.9 kg/m3; viscosity ([2]; 343.15 K): 18.86 ± 0.33 mPa·s; mass density ([2]; 353.15 K): 1385.76 ± 1.9 kg/m3; viscosity ([2]; 353.15 K): 14.74 ± 0.26 mPa·s
2 | CCOS(=O)(=O)[O-].CCn1cc[n+](C)c1 [1-ethyl-3-methylimidazolium ethyl sulfate] | 1.47959 ± 0.00047 | 1.47694 ± 0.00047 | 1.47429 ± 0.00047 | 1.47158 ± 0.00047 | 1.46893 ± 0.00047 | 1.46625 ± 0.00047 | 1.46359 ± 0.00047 | 1241.86 ± 1.3 | 122.07 ± 6 | 47.34 ± 0.5 | 1235.06 ± 1.3 | 75.1 ± 1.9 | 46.67 ± 0.5 | 1228.28 ± 1.3 | 49.84 ± 0.9 | 46.17 ± 0.49 | 1221.54 ± 1.2 | 35.34 ± 0.62 | 45.53 ± 0.49 | 1214.84 ± 1.2 | viscosity ([2]; 333.15 K): 25.93 ± 0.45 mPa·s; mass density ([2]; 343.15 K): 1208.19 ± 1.2 kg/m3; viscosity ([2]; 343.15 K): 19.36 ± 0.34 mPa·s; mass density ([2]; 353.15 K): 1201.58 ± 1.2 kg/m3; viscosity ([2]; 353.15 K): 15.12 ± 0.26 mPa·s
